Assay results as given in patent US12692239B2, “Methods and compositions for targeting Tregs using CCR8 inhibitors” (Nanjing Immunophage Biomedical Co., Ltd., priority 2020, dated 2026).
Where a name gives a salt, the structure may show the parent alone.

Molecular target: CCR8 (Homo sapiens, UniProt P51685)
Experiment: Tango assay (Tango-CCR8-Gal4-CHO-K1 cells, CCL1-stimulated, ONE-Glo luminescence)
Details: Tango Assay IC50, Inhibition of CCR8 Tango cell in vitro
Experimental: The Tango cell line was used to monitor antagonists-mediated receptor inactivation.
Tango cells (Tango-CCR8-Gal4-CHO-K1 cells constructed by Genomeditech) were passaged in complete medium (F12K, 10% FBS, 1% penicillin-streptomycin, 4 g/ml puromycin, 4 g/ml blasticidin and 100 g/ml hygromycin) in incubator (37° C., 5% CO2).
Twenty-four hours before the seed, cells were cultured in 10 or 15 cm dish at a density of 30% confluence in culture medium (F12K, 10% FBS, 1% penicillin-streptomycin).
Cells were suspended in starving medium (F12K, 1% FBS, 1% penicillin-streptomycin) before being seeded into black/clear 96 wells (1×10^4 cells/70 μl/well) and incubated for 6 hours (37° C., 5% CO2). Different concentration of compound, dissolved in DMSO, was into the 96-well plates, with 50 μl in each well, and incubation continued for 1 hour at 37° C.
After the incubation, the medium was removed and the 96-well plate was put in −80° C. freezer for an hour or longer. The plate and the ONE-Glo reagent (Promega, Catalog Number: E6110) which was frozen in −80° C., were taken out and rewarmed to room temperature. […] After incubating for 10 minutes at room temperature, the plate was read using microplate luminescence reader at 560 nm.
The microplate reader records luminescence in relative luminescence units (RLU).

Sequence of CCR8 (P51685 whole entry, the tested form may be a part): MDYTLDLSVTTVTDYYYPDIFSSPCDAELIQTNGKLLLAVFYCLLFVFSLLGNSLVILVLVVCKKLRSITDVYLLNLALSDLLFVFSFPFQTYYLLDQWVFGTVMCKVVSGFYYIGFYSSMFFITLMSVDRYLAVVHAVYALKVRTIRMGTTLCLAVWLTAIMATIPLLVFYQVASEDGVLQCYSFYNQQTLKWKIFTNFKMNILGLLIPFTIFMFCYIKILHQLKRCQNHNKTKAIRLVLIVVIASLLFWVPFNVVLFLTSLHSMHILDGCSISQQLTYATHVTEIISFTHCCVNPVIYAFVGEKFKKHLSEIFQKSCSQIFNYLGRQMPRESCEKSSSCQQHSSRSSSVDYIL

`Cc1ccccc1C(=O)Nc1c(C)cc(S(=O)(=O)N[C@H](C)C2CCNCC2)cc1Cl` [Compound 180A, (R)-N-(2-chloro-6-methyl-4-(N-(1-(piperidin-4-yl)ethyl)sulfamoyl)phenyl)-2-methylbenzamide hydrochloride] showed an IC50 of 9 nM.
